Inhibition in vivo and UI data for 14 compounds are collected here from ChEMBL document CHEMBL1938307, “Synthesis, pharmacological evaluation and docking studies of N-(benzo[d]thiazol-2-yl)-2-(piperazin-1-yl)acetamide analogs as COX-2 inhibitors” (Bioorg Med Chem Lett, 2012).

Molecules are shown by their SMILES.

Data set [1] relates to Rattus norvegicus. Briefly: Antiinflammatory activity in Wistar rat assessed as inhibition of carrageenan-induced paw edema at 30 mg/kg after 2 hrs. In kind it is functional.
The test system of data set [2] is Rattus norvegicus. The experiment in a line: Ulcerogenic effect in Wistar rat assessed as gastric bleeding at 90 mg/kg after 6 hrs. In kind it is toxicity, organism-based, Stomach. More on the design: dose 90 mg/kg. Conditions: in vivo.
For data set [3], the system named is Rattus norvegicus. The experiment in a line: Ulcerogenic effect in Wistar rat assessed as lesions in stomach area at 90 mg/kg after 6 hrs. Type of data set: toxicity, organism-based. More on the design: dose 90 mg/kg. Conditions: in vivo.

Broadly, the inhibition in vivo is the drop in the measured response relative to a control, in per cent. Turning to `CCN1CCN(CC(=O)Nc2nc3cc([N+](=O)[O-])ccc3s2)CC1`, the inhibition in vivo at 30 mg/kg in data set [1] was determined as 17.4%.

With `COc1ccc2cc([C@H](C)C(=O)O)ccc2c1` [NAPROXEN], the inhibition in vivo at 30 mg/kg in data set [1] was 71.7%. The UI in data set [2] and in data set [3] was 2.5 each time. In the case of `COc1ccc2sc(NC(=O)CN3CCN(c4ccccc4)CC3)nc2c1`, the inhibition in vivo at 30 mg/kg in data set [1] worked out at 21.7%. As for `O=C(CN1CCN(c2ccccc2)CC1)Nc1nc2ccccc2s1`, the inhibition in vivo at 30 mg/kg in data set [1] was determined as 23.9%. For the compound `O=C(CN1CCCNCC1)Nc1nc2cc([N+](=O)[O-])ccc2s1`, the inhibition in vivo at 30 mg/kg in data set [1] worked out at 17.4%. Take `CCN1CCN(CC(=O)Nc2nc3ccccc3s2)CC1`: the inhibition in vivo at 30 mg/kg in data set [1] was determined as 13%. Turning to `O=C(CN1CCNCC1)Nc1nc2ccccc2s1`, the inhibition in vivo at 30 mg/kg in data set [1] turned out to be 41.3%. Besides, the UI in data set [2] and in data set [3] was 1.24 in each case.

For `O=C(CN1CCNCC1)Nc1nc2cc([N+](=O)[O-])ccc2s1`, the inhibition in vivo at 30 mg/kg in data set [1] came out at 12.3%.

With `CS(=O)(=O)c1ccc(C2=C(c3ccccc3)C(=O)OC2)cc1` [ROFECOXIB], the inhibition in vivo at 30 mg/kg in data set [1] came to 81%. As to `CCN1CCN(CC(=O)Nc2nc3cc(OC)ccc3s2)CC1`, the inhibition in vivo at 30 mg/kg in data set [1] is 17.4%. On to `COc1ccc2sc(NC(=O)CN3CCCNCC3)nc2c1`, for which, in data set [1], the inhibition in vivo at 30 mg/kg came to 17.4%. Take `O=C(CN1CCCNCC1)Nc1nc2ccccc2s1`: the inhibition in vivo at 30 mg/kg in data set [1] is 8.6%. Same read-out and setting: to `COc1ccc2sc(NC(=O)CN3CCNCC3)nc2c1` belongs 2.17%.

Regarding `O=C(CN1CCN(c2ccccc2)CC1)Nc1nc2cc([N+](=O)[O-])ccc2s1`, the inhibition in vivo at 30 mg/kg in data set [1] came out at 34.8%. Moreover, the UI in data set [2] and in data set [3] was 1.21 each time.
